{"source": "paper PMC3898838", "about": "“Design, Synthesis, and Biological Evaluation of an Allosteric Inhibitor of HSET that Targets Cancer Cells with Supernumerary Centrosomes” (Chemistry & Biology, 2013)", "key": {"[1]": {"biological_target": "T1, full-length, N-terminal, 6His-tagged human HSET (Homo sapiens, UniProt Q9BW19)", "T1 construct": "The protocol was optimized for use with full-length, N-terminal, 6His-tagged HSET and KSP; made in house; host or cells: Sf9 insect cells (baculovirus, pFastBac1)", "T1 sequence (Q9BW19 1-673)": "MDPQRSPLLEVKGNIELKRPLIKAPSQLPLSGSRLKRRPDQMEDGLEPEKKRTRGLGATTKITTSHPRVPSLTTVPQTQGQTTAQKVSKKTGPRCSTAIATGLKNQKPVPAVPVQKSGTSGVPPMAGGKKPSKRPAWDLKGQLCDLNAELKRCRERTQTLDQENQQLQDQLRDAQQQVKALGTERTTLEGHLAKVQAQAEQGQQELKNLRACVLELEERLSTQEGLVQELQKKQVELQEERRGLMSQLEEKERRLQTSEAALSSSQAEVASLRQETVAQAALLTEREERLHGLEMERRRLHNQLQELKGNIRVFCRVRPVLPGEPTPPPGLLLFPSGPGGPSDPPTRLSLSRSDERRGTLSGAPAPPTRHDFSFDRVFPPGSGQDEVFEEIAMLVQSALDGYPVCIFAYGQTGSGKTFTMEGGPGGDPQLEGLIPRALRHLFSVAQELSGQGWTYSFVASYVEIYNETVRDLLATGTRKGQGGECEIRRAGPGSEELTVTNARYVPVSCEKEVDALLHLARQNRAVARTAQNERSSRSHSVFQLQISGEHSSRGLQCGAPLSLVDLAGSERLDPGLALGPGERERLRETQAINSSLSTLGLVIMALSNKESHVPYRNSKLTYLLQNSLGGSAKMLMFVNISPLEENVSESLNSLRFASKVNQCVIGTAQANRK", "assay": "In vitro enzymatic ATPase assay (ADP-Glo), MT-stimulated activity", "format": "biochemical", "excerpt": "The similarity decreases to 56% in the loop 5 binding cleft alone (residues 422–432; Figure 1A). Given the high degree of similarity between the proteins, and the potential for selective binding in the loop 5 cleft, the chemogenomics principle that similar proteins bind similar ligands was applied to HSET and KSP, and an in silico model for HSET binding was developed based on nearly 500 existing inhibitors of KSP in the ChEMBL database (see Experimental Procedures for details; [Klabunde, 2007]). Using the model parameters, we selected 200 compounds (in silico) from 20 million possibilities and further triaged them into 50 ligands that scored highest in the bioactivity model. We acquired and tested these ligands for in vitro activity using an ADP-Glo enzymatic assay (see Experimental Procedures for details; Figure 1B).\nThe protocol was optimized for use with full-length, N-terminal, 6His-tagged HSET and KSP, and measured the MT-stimulated activity of the proteins. Inhibition of the […] of HSET/KSP was observed spectrophotometrically by coupling the hydrolysis of ATP to oxidation of NADH via pyruvate kinase/lactate dehydrogenase reactions. The assay was initiated by […] an assay mixture containing the following components (final concentration): 6 nM protein, 0.07 mg/ml MTs (University Biologicals), […], 2 mM ATP, 2.7 mM MgCI, 1 mM phospho(enol)-pyruvate, 0.2 mM NADH, 50 μg/ml lactate dehydrogenase, 100 μg/ml pyruvate kinase, and various concentrations of inhibitor all in 50 mM Na PIPES (pH 6.8) at 37°C. The ADP-Glo detection assay (Promega) was performed as described in the manufacturer’s instructions. All compound additions were performed using a multidrop BioMek Nxp (Beckman Coulter). Plates were read using a Pherastar microplate reader (BMG Labtech)."}, "HeLa cells": {"test_system": "HeLa cells", "assay": "Immunofluorescence after time-lapse imaging, monopolar/bipolar spindles", "format": "cell-based, human", "settings": "200 μM CW069, 100 μM monastrol, 40 mitotic cells", "excerpt": "Immediately after time-lapse imaging, cells were fixed and antibodies against α-tubulin, CDK5RAP2, and DAPI were employed to visualize MTs, centrosomes, and DNA, respectively. […] Control HeLa cells formed mainly bipolar spindles (92%), with two centrosomes positioned at the spindle poles on either side of the metaphase plate (Figure 6C; Table 1). Similar numbers of bipolar spindles were formed in CW069-treated cells (95%; Figure 6C; Table 1). Monastrol-treated cells almost exclusively formed monopolar spindles (97%) with one pole surrounded by DNA ([Luo et al., 2004]; Figure 6C; Table 1). Normal bipolar spindle formation was indeed restored for many cells (45%) when the HSET inhibitor CW069 was administered along with the KSP inhibitor monastrol (Figure 6C; Table 1).\nCells were plated at a seeding density of 1.2 × 10^4 cells per well in Ibidi eight-well chamber slides, incubated for 24 hr, and then treated with compound for 3 hr. Prewarmed 4% paraformaldehyde in PBS was then added to each well to fix the cells before washing with PBS. Permeabilization and blocking was performed by incubating the slides with 1% BSA, 0.3% Triton X-100, 5% goat serum in PBS (PBS/B/0.3%T+5%GS) for 1 hr while shaking them at room temperature (RT). The slides were incubated with primary antibody solutions (mouse monoclonal anti-α-Tubulin [catalog number T9026; Sigma-Aldrich] and rabbit anti-CDK5RAP2 [catalog number A300-554A; Bethyl Laboratories]) at 4°C for 16 hr. The slides were washed four times with PBS/B/0.3%T+5%GS and then incubated with secondary antibody solutions (anti-rabbit IgG Alexa Fluor 488 [catalog number A21206] and anti-mouse IgG Alexa Fluor 647 [catalog number A20990]; Invitrogen) and DAPI (catalog number D3571; Invitrogen) in deionized water (300 nM) in the dark at RT for 1 hr. After four washes with PBS/B/0.3%T+5%GS, the solution was replaced with PBS and the slides were stored at 4°C until imaging was performed. Images were gathered with the use of an ICys Research Imaging Cytometer (CompuCyte) or a tandem confocal microscope (Leica)."}}, "data": [{"smiles": "O=C(O)c1cc(I)ccc1NC(=O)[C@H](Cc1ccccc1)NCc1ccccc1", "note": "[CW069]", "values": [{"measurement": "IC50", "setting": "[1]; concentrations up to 250 μM, mean ± SD", "value": "75 ± 20", "unit": "µM"}, {"measurement": "selectivity for HSET over KSP", "setting": "[1]; from IC50 values, HSET vs KSP", "value": "~4", "unit": "fold"}, {"measurement": "Bipolar Spindle (%)", "setting": "HeLa cells", "value": 95, "unit": "%"}, {"measurement": "Monopolar Spindle (%)", "setting": "HeLa cells", "value": 5, "unit": "%"}]}]}
